From patent EP4818171A1 (Apeiron Therapeutics (Hong Kong) Ltd., priority 2024, dated 2025)
Like-named read-outs stand apart in the source and are kept apart here.

How the values were obtained:
HCT-116 wild-type cells = assay: Inhibitory activity on proliferation of HCT-116 wild-type cells (Cell-Titer Glo); format: cell-based; settings: 8 d incubation
Experimental: Cell culture: HCT-116 wild-type cells were cultured with a RPMI-1640 medium containing 10% fetal bovine serum+1% penicillin-streptomycin at 37°C in 5% carbon dioxide. Only cells in the logarithmic growth phase could be used for the test.
Test of cell proliferation activity: Cell-Titer Glo kit was used to test the proliferation inhibitory activity of the compound on HCT-116 wild-type cells. The cell concentration was adjusted, rendering that cells were inoculated into a 384-well plate at 40 µL per well and incubated overnight at 37°C and 5% carbon dioxide. 40 nL of the compound was added to each well to reach a final concentration of 0-10,000 nM (starting concentration 10,000 nM, 2-fold dilution, 10 points), and the cell plate with 0.1% DMSO content was incubated at 37°C and 5% carbon dioxide for 8 d. 40 µL of Cell-Titer Glo reagent was added to test cell viability.

[1] = test system: LU99 MTAP overexpressing cells; assay: Inhibitory activity on proliferation of LU99 MTAP overexpressing cells (Cell-Titer Glo); format: cell-based; settings: 6 d incubation
Experimental: Materials and cells: LU99 MTAP overexpressing cell line was purchased from Kyinno Biotechnology (China); cell culture medium and fetal bovine serum were purchased from Thermo Fisher Scientific (USA); 384-well plates were purchased from PerkinElmer (USA); Cell-Titer Glo kits were purchased from Promega (USA).
Cell culture: LU99 MTAP overexpressing cells were cultured with medium containing 10% fetal bovine serum at 37°C in 5% carbon dioxide. Only cells in the logarithmic growth phase could be used for the test.
Test of inhibitory activity on cell proliferation: The Cell-Titer Glo kit was used to test the proliferation inhibitory activity of the compounds on LU99 MTAP overexpressing cells. The cell concentration was adjusted, rendering that cells were inoculated into a 384-well plate at 40 µL per well and incubated overnight at 37°C and 5% carbon dioxide. 40 nL of the compound was added to each well to reach a final concentration of 0-10,000 nM (starting concentration 10,000 nM, 2.5-fold dilution, 10 points), and the cell plate with 0.2% DMSO content was incubated at 37°C and 5% carbon dioxide for 6 d. 40 µL of Cell-Titer Glo reagent was added to test cell viability.

[2] = test system: LU99 MTAP(-/-)deleted cells; assay: Inhibitory activity on proliferation of LU99 MTAP(-/-)deleted cells (Cell-Titer Glo); settings: Homo sapiens, Lu-99, 144 h, read-out: IC50 (nM) Lu99 MTAP(-/-)Deleted, LU99 MTAP(-/-)deleted cells, 6 d incubation, Cell-Titer Glo
Experimental: (§1) Materials and cells: LU99 MTAP deleted cell line was purchased from Kyinno Biotechnology (China); cell culture medium and fetal bovine serum were purchased from Thermo Fisher Scientific (USA); 384-well plates were purchased from PerkinElmer (USA); Cell-Titer Glo kits were purchased from Promega (USA). Cell culture: LU99 MTAP(-/-)deleted cells were cultured with medium containing 10% fetal bovine serum at 37°C in 5% carbon dioxide. Only cells in the logarithmic growth phase could be used for the test.
(§2) Test of inhibitory activity on cell proliferation: The Cell-Titer Glo kit was used to test the proliferation inhibitory activity of the compounds on LU99 MTAP(-/-)deleted cells. The cell concentration was adjusted, rendering that cells were inoculated into a 384-well plate at 40 µL per well and incubated overnight at 37°C and 5% carbon dioxide. […] 40 µL of Cell-Titer Glo reagent was added to test cell viability.

[3] = test system: HCT-116 MTAP(-/-)deleted cells; assay: Inhibitory activity on proliferation of HCT-116 MTAP(-/-)deleted cells (Cell-Titer Glo); settings: Homo sapiens, HCT-116, 192 h, read-out: IC50 (nM) HCT-116 MTAP(-/-)deleted
Experimental: (§3) Only cells in the logarithmic growth phase could be used for the test. […] The cell concentration was adjusted, rendering that cells were inoculated into a 384-well plate at 40 µL per well and incubated overnight at 37°C and 5% carbon dioxide. 40 nL of the compound was added to each well to reach a final concentration of 0-10,000 nM (starting concentration 10,000 nM, 3-fold dilution, 10 points), and the cell plate with 0.1% DMSO content was incubated at 37°C and 5% carbon dioxide for 8 d. 40 µL of Cell-Titer Glo reagent was added to test cell viability.

[4] = test system: HCT-116 MTAP(-/-)deleted cells; settings: 192 h
Experimental: as §3

[5] = test system: LU99 MTAP(-/-)deleted cells; settings: 144 h
Experimental: as §1, §2

[6] = Pharmacokinetic test in mice; format: in vivo; settings: male, mouse, plasma, ICR mice; for bioavailability: read-out: Bioavailability (F)
Experimental: The test compounds are compounds according to examples of the present disclosure
ICR male mice N=3/group; original source: Zhejiang Vital River Laboratory Animal Technology Co., Ltd.
Single oral administration (PO) to ICR mice: The compound was weighed and dissolved with DMSO, a certain volume of polyethylene glycol 400 and water for injection (WFI) were added, and then a small volume of 1 mol/L hydrochloric acid solution was added to adjust to a clear solution. […]
Single intravenous (IV) administration to ICR mice: The compound was weighed and dissolved with DMSO, a certain volume of polyethylene glycol 400 and water for injection (WFI) were added, and then a small volume of 1 mol/L hydrochloric acid solution was added to adjust to a clear solution. The administration via tail vein injection was conducted for a total of 3 mice after fasting overnight at a dose of 3 mg/kg.
Blood was collected from the dorsalis pedis vein at approximately 30 µL/time point, anticoagulated with dipotassium ethylenediaminetetraacetate and kept on ice until plasma was separated by centrifugation (4000 g/min; 5 min; 4°C) within 1 h. The blood sampling time points were 0.0833 (intravenous injection), 0.25, 0.5, 1, 2, 4, 6, 8, and 24 h. The samples were stored in a refrigerator at -20°C.
A total of 30 µL of plasma sample (10 µL sample + 20 µL blank plasma sample) was added with 200 µL ice-cold ACN containing internal standard, vortexed for 30 s, and centrifuged at 4000 g/min for 20 min. A total of 100 µL of the supernatant was transferred to a 96-well plate, 200 µL of ultrapure water was added, vortexed for 30 s, and 5 µL or 10 µL was injected into LC-MS/MS for analysis. Table 2: Pharmacokinetic Data

| IC50 (HCT-116 wild-type cells; Homo sapiens, HCT-116, 192 h) | IC50 [3] | SMILES | IC50 ([1]; Homo sapiens, Lu-99, 144 h) | IC50 [2] | other results |
| --- | --- | --- | --- | --- | --- |
| > 10000 nM | 47.9 nM | CN(C(=O)c1ccc2nc(N)c3cncn3c2c1)[C@@H]1COC(C)(C)c2cc(N3CCOCC3)ccc21 [Example 98, (S)-4-amine-N-(1,1-dimethyl-7-morpholinoisochroman-4-yl)-N-methylimidazo[1,5-a]quinoxaline-8-carboxamide] | 8100 nM | 57.5 nM |  |
| 636 nM | 5.1 nM | CN(C(=O)c1ccc2nc(N)c3cncn3c2c1)C1COC2(CCC2)c2cc(C(F)(F)F)ccc21 (stereo not drawn) [Example 7, 4-Amino-N-methyl-N-(7'-(trifluoromethyl)spiro[cyclobutane-1,1'-isochroman]-4'-yl)imidazo[1,5-a]quinoxaline-8-carboxamide] | 624 nM | 8.3 nM |  |
| 324 nM | 5.17 nM | Cn1cc(N(C(=O)c2ccc3nc(N)c4cncn4c3c2)C2COC3(CCC3)c3cc(C(F)(F)F)ccc32)cn1 (stereo not drawn) [Example 17, 4-Amino-N-(1-methyl-1H-pyrazol-4-yl)-N-(7'-(trifluoromethyl)spiro[cyclobutane-1,1'-isochroman]-4'-yl)imidazo[1,5-a]quinoxaline-8-carboxamide] | 104 nM | 4.5 nM |  |
| 1730 nM | 7.64 nM | CN(C(=O)c1ccc2nc(N)c3cncn3c2c1)C1COC2(CCOCC2)c2cc(C(F)(F)F)ccc21 (stereo not drawn) [Example 12, 4-Amino-N-methyl-N-(7'-(trifluoromethyl)-2',3',5',6'-tetrahydrospiro[isochroman-1,4'-pyran]-4-yl)imidazo[1,5-a]quinoxaline-8-carboxamide] | 1640 nM | 8.8 nM |  |
| 602 nM | 8.06 nM | Cc1ncn2c1c(N)nc1cc(F)c(C(=O)N(C)C3COC4(CCCOC4)c4cc(C(F)(F)F)ccc43)cc12 (stereo not drawn) [Example 52, 4-Amino-7-fluoro-N,3-dimethyl-N-(7-(trifluoromethyl)-5',6'-dihydro-2'H,4'H-pyran[isochroman-1,3'-pyran]-4-yl)imidazo[1,5-a]quinoxaline-8-carboxamide] | 539 nM | 14.9 nM |  |
| 3930 nM | 9 nM | CN(C(=O)c1ccc2nc(N)c3cncn3c2c1)C1COC2(CC2)c2cc(C(F)(F)F)ccc21 (stereo not drawn) [Example 8, 4-Amino-N-methyl-N-(7'-(trifluoromethyl)spiro[cyclopropane-1,1'-isochroman]-4'-yl)imidazo[1,5-a]quinoxaline-8-carboxamide] | 2310 nM | 13.4 nM |  |
| 1830 nM | 8.02 nM | Cc1ncc2c(N)nc3cc(F)c(C(=O)N(C)C4COC5(CCCOC5)c5cc(C(F)(F)F)ccc54)cc3n12 (stereo not drawn) [Example 51, 4-Amino-7-fluoro-N,1-dimethyl-N-(7-(trifluoromethyl)-5',6'-dihydro-2'H,4'H-pyran[isochroman-1,3'-pyran]-4-yl)imidazo[1,5-a]quinoxaline-8-carboxamide] | 1320 nM | 14 nM |  |
| 597 nM | 5.3 nM | CN(C(=O)c1cc2c(cc1F)nc(N)c1cncn12)C1COC2(CCC2)c2cc(C(F)(F)F)ccc21 (stereo not drawn) [Example 13, 4-Amino-7-fluoro-N-methyl-N-(7'-(trifluoromethyl)spiro[cyclobutane-1,1'-isochroman]-4'-yl)imidazo[1,5-a]quinoxaline-8-carboxamide] | 773 nM | 7.8 nM |  |
| 2710 nM | 21.7 nM | Cc1ncc2c(N)nc3cc(F)c(C(=O)N(C)C4COC5(CCOCC5)c5cc(C(F)(F)F)ccc54)cc3n12 (stereo not drawn) [Example 19, 4-Amino-7-fluoro-N,1-dimethyl-N-(7-(trifluoromethyl)-2',3',5',6'-tetrahydrospiro[isochroman-1,4'-pyran]-4-yl)imidazo[1,5-a]quinoxaline-8-carboxamide] | 1390 nM | 31.3 nM |  |
| 920 nM | 9.46 nM | Cc1ncn2c1c(N)nc1cc(F)c(C(=O)N(C)C3COC4(CCOCC4)c4cc(C(F)(F)F)ccc43)cc12 (stereo not drawn) [Example 20, 4-Amino-7-fluoro-N,3-dimethyl-N-(7-(trifluoromethyl)-2',3',5',6'-tetrahydrospiro[isochroman-1,4'-pyran]-4-yl)imidazo[1,5-a]quinoxaline-8-carboxamide] | 1070 nM | 20.5 nM |  |
| 7590 nM | 419 nM | CN(C(=O)c1ccc2nc(N)c3cncn3c2c1)[C@H]1COC2(CC2)c2cc(C(F)(F)F)ccc21 [Example 53, (R)-4-amino-N-methyl-N-(7'-(trifluoromethyl)spiro[cyclopropane-1,1'-isochroman]-4'-yl)imidazo[1,5-a]quinoxaline-8-carboxamide] | 1750 nM | 682 nM |  |
|  |  | CN(C(=O)c1ccc2nc(N)c3cncn3c2c1)C1COC2(CCC2)c2cc(N3CCOCC3)ncc21 (stereo not drawn) [Example 6, 4-Amino-N-methyl-N-(7'-morpholinyl-3',4'-dihydrospiro[cyclobutane-1,1'-pyrano[4,3-c]pyridine]-4'-yl)imidazo[1,5-a]quinoxaline-8-carboxamide] |  |  | IC50 (HCT-116 wild-type cells): 10000 nM; IC50 [1]: 3880 nM; IC50 [4]: 110 nM; IC50 [5]: 88.5 nM |
| 1040 nM | 5.8 nM | CN(C(=O)c1ccc2nc(N)c3cncn3c2c1)[C@@H]1COC2(CC2)c2cc(C(F)(F)F)ccc21 [Example 54, (S)-4-amino-N-methyl-N-(7'-(trifluoromethyl)spiro[cyclopropane-1,1'-isochroman]-4'-yl)imidazo[1,5-a]quinoxaline-8-carboxamide] | 1100 nM | 8.11 nM | bioavailability ([6]; PO(30mg/kg)): 86.5%; bioavailability ([6]; PO(100mg/kg)): 48.2%; AUC(0-t) ([6]; IV(3mg/kg)): 25.4 µg·h/mL; half-life ([6]; IV(3mg/kg)): 2.37 h; AUC(0-t) ([6]; PO(30mg/kg)): 220 µg·h/mL; half-life ([6]; PO(30mg/kg)): 1.47 h; AUC(0-t) ([6]; PO(100mg/kg)): 408 µg·h/mL; half-life ([6]; PO(100mg/kg)): 2.06 h |
